Laboratory results taken from US12630498B2 (Genzyme Corporation, priority 2019, dated 2026).

How the values were obtained:
[1] = molecular target: T1, human Cystic Fibrosis Transmembrane Conductance Regulator (CFTR) harboring the ΔF508 mutation (Homo sapiens, UniProt P13569, DEL508-508); assay: H441 cell ΔF508-CFTR-HRP cell surface assay (Emax and EC50); format: cell-based; conditions: for Emax: NCI-H441, NA = Not active
T1 construct: expressed in transfected cells; host or cells: H441 carcinoma line (G418-selected)
Method in brief: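 H441 and 41o- bronchial epithelial cells expressing ΔF508-CFTR with an extracellular-loop-4 HRP tag were treated with a 15-point compound series (24.5–0.001 μM) for two nights, H441 at 27° C, 41o- at 37° C with 0.0005 mg/ml doxycycline. Surface HRP luminescence read; % of maximum VX809 signal and EC50 derived.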

[2] = molecular target: T2, CFTR-mediated transepithelial chloride transport in primary human bronchial epithelial cells from a ΔF508 homozygous CF donor (Homo sapiens, UniProt P13569, DEL508-508); assay: TECC24 recording of CFTR-mediated transepithelial chloride transport in CF-HBE cells (AUC fold over DMSO); format: cell-based; conditions: test agent 10 μM, 48 hours incubation, AUC of forskolin-stimulated IEQ relative to DMSO
T2 construct: Primary human bronchial epithelial cells from a ΔF508 homozygous CF donor; host or cells: primary CF-HBE cells, ΔF508 homozygous donor
Method in brief: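 Primary ΔF508/ΔF508 CF-HBE cells on inserts exposed to test agent in IL-13-containing medium for 48 h at 36.5 °C. Current-clamp VT/TEER recording in pH 7.4 HEPES saline with benzamil 10 μM, forskolin 10 μM, then CFTRinh-172 20 μM. AUC of equivalent Cl⁻ current between forskolin and inhibitor, expressed as ratio over vehicle.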

T1 sequence (P13569 with tags, fused parts or gaps DEL508-508): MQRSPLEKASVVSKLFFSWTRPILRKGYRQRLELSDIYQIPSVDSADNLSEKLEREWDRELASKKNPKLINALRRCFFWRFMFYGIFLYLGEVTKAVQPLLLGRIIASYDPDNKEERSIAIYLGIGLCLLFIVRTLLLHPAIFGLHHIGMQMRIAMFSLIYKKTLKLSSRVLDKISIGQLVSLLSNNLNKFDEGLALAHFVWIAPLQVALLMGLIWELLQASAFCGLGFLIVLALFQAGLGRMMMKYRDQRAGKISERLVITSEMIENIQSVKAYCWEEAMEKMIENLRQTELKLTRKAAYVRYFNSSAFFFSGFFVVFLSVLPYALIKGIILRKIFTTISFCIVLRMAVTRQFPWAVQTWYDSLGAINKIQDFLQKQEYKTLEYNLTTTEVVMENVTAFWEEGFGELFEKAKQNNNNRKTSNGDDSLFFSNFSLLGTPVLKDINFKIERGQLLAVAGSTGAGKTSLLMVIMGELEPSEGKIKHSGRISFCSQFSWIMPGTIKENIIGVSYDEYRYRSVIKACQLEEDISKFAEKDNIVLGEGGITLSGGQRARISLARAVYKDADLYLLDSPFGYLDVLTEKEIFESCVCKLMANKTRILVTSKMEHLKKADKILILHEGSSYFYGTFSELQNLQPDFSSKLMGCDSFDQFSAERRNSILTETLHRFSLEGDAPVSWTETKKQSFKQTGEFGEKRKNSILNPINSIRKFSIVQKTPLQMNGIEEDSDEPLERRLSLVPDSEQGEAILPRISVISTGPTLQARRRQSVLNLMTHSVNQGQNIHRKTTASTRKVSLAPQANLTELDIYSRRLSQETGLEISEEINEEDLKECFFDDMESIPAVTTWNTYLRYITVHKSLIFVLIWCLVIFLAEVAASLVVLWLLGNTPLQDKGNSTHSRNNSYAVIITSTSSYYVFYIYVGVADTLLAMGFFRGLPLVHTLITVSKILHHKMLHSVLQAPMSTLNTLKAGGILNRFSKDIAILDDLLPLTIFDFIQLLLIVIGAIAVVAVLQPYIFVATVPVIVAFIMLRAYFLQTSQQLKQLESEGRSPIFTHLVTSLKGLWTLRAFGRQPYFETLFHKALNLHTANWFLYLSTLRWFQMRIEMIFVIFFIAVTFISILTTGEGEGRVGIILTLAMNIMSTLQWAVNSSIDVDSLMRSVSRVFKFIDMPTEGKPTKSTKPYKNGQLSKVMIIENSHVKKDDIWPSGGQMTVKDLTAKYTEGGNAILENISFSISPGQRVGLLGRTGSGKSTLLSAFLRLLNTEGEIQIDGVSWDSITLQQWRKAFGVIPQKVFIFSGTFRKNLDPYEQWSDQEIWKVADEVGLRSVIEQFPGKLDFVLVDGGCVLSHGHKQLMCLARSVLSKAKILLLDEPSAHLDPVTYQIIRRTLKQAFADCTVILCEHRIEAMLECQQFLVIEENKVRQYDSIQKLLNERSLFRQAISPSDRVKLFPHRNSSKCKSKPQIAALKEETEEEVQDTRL
T2 sequence (P13569 with tags, fused parts or gaps DEL508-508): as above

| Compound | EC50 [1] | Emax [1] | TECC24 AUC fold over DMSO @10 μM [2] |
| --- | --- | --- | --- |
| CC(C)(C)[C@H](NC(=O)c1ccc2ccccc2c1OCc1ccc(SC(F)(F)F)cc1)C(=O)O [Example 35, (S)-3,3-dimethyl-2-(1-((4-((trifluoromethyl)thio)benzyl)oxy)-2-naphthamido)butanoic Acid] | 600 nM | 86.4% | A (“A” refers to AUC @10 uM >6) |
| O=C(N[C@H](C(=O)O)c1ccccc1)c1ccc2ccccc2c1OCc1ccc(C(F)(F)F)cc1 [Example 140, (S)-2-phenyl-2-(1-((4-(trifluoromethyl)benzyl)oxy)-2-naphthamido)acetic Acid] | 5700 nM | 82.9% | C (“C” refers to AUC @10 uM <4) |
| CC1([C@H](NC(=O)c2ccc3cc(F)ccc3c2OCc2ccc(C(F)(F)F)cc2)C(=O)O)CCCCC1 [Example 40, (S)-2-(6-fluoro-1-((4-(trifluoromethyl)benzyl)oxy)-2-naphthamido)-2-(1-methylcyclohexyl)acetic Acid] | 300 nM | 100% | C (“C” refers to AUC @10 uM <4) |
| O=C(N[C@H](C(=O)O)C1CCCC1)c1ccc2ccccc2c1OCC1CCC(F)(F)CC1 [Example 155, (S)-2-cyclopentyl-2-(1-((4,4-difluorocyclohexyl)methoxy)-2-naphthamido)acetic Acid] | 4100 nM | 60.7% | C (“C” refers to AUC @10 uM <4) |
| O=C(N[C@H](C(=O)O)C(c1ccccc1)c1ccccc1)c1ccc2ccccc2c1OCc1ccc(OC(F)(F)F)cc1 [Example 189, (S)-3,3-diphenyl-2-(1-((4-(trifluoromethoxy)benzyl)oxy)-2-naphthamido)propanoic Acid] | 2400 nM | 14.3% | C (“C” refers to AUC @10 uM <4) |
| O=C(N[C@H](C(=O)O)C1CCCC1)c1ccc2cc(F)ccc2c1OCc1ccc(C(F)(F)F)cc1 [Example 153, (S)-2-cyclopentyl-2-(6-fluoro-1-((4-(trifluoromethyl)benzyl)oxy)-2-naphthamido)acetic Acid] | 1500 nM | 73.5% | B (“B” refers to AUC @10 uM between 4-6) |
| C[C@H](OC(C)(C)C)C(NC(=O)c1ccc2ccccc2c1OCc1ccc(C(F)(F)F)cc1)C(=O)O (stereo partly drawn) [Example 134, (3S)-3-(tert-butoxy)-2-(1-((4-(trifluoromethyl)benzyl)oxy)-2-naphthamido)butanoic Acid] | 1000 nM | 84.9% | C (“C” refers to AUC @10 uM <4) |
| CC1(C(NC(=O)c2ccc3ccccc3c2OCc2ccc(OC(F)(F)F)cc2)C(=O)O)CCCCC1 (centres unmarked) [Example 1, 2-(1-methylcyclohexyl)-2-[[1-[[4-(trifluoromethoxy)phenyl]methoxy]naphthalene-2-carbonyl]amino]acetic Acid] | 700 nM | 164% | B (“B” refers to AUC @10 uM between 4-6) |
| CCC(C)(C)[C@H](NC(=O)c1ccc2ccc(C)cc2c1OCCCC(C)(C)C)C(=O)O [Example 257, (2S)-2-[[1-(4,4-dimethylpentoxy)-7-methyl-naphthalene-2-carbonyl]amino]-3,3-dimethyl-pentanoic Acid] | 600 nM | 369% | A (“A” refers to AUC @10 uM >6) |
| CC(C)(C)[C@H](NC(=O)c1ccc2ccccc2c1OC[C@H]1CC[C@@H](C(F)(F)F)CC1)C(=O)O [Example 26, (S)-3,3-dimethyl-2-(1-(((1s,4R)-4-(trifluoromethyl)cyclohexyl)methoxy)-2-naphthamido)butanoic Acid] | 4600 nM | 98.8% | C (“C” refers to AUC @10 uM <4) |
| O=C(N[C@@H](Cc1ccco1)C(=O)O)c1ccc2ccccc2c1OCc1ccc(C(F)(F)F)cc1 [Example 136, (S)-3-(furan-2-yl)-2-(1-((4-(trifluoromethyl)benzyl)oxy)-2-naphthamido)propanoic Acid] | 8100 nM | 73.6% | C (“C” refers to AUC @10 uM <4) |
| CC(C)(C)[C@H](NC(=O)c1ccc2ccccc2c1OCc1ccc(C(F)(F)F)cc1F)C(=O)O [Example 70, (S)-2-(1-((2-fluoro-4-(trifluoromethyl)benzyl)oxy)-2-naphthamido)-3,3-dimethylbutanoic Acid] | 800 nM | 272% | C (“C” refers to AUC @10 uM <4) |

The next lines start with the values.

| EC50 [1] | Emax [1] | TECC24 AUC fold over DMSO @10 μM [2] | Compound |
| --- | --- | --- | --- |
| 12200 nM | 156% | A (“A” refers to AUC @10 uM >6) | Cc1ccc2c(OCc3ccc(C(F)(F)F)cc3)c(C(=O)N[C@H](C(=O)O)C(C)(C)C)ccc2c1 [Example 233, (2S)-3,3-dimethyl-2-[[6-methyl-1-[[4-(trifluoromethyl)phenyl]methoxy]naphthalene-2-carbonyl]amino]butanoic Acid] |
| 300 nM | 235% | A (“A” refers to AUC @10 uM >6) | CC(C)(C)[C@H](NC(=O)c1ccc2ccc(F)cc2c1OCc1ccc(OC(F)(F)F)cc1)C(=O)O [Example 239, (S)-2-(7-fluoro-1-((4-(trifluoromethoxy)benzyl)oxy)-2-naphthamido)-3,3-dimethyl Butanoic Acid] |
| 800 nM | 143% | C (“C” refers to AUC @10 uM <4) | O=C(NC(C(=O)O)C1(C(F)(F)F)CC1)c1ccc2ccc(Cl)cc2c1OCc1ccc(OC(F)(F)F)cc1 (centres unmarked) [Example 238, 2-(7-chloro-1-((4-(trifluoromethoxy)benzyl)oxy)-2-naphthamido)-2-(1-(trifluoromethyl)cyclopropyl)acetic Acid] |
| 100 nM | 365% | A (“A” refers to AUC @10 uM >6) | CC(C)(C)[C@H](NC(=O)c1ccc2ccc(C(F)F)cc2c1OCc1ccc(C(F)(F)F)cc1)C(=O)O [Example 244, (2S)-2-[[7-(difluoromethyl)-1-[[4-(trifluoromethyl)phenyl]methoxy]naphthalene-2-carbonyl]amino]-3,3-dimethyl-butanoic Acid] |
| 600 nM | 152% | A (“A” refers to AUC @10 uM >6) | CCC(C)(C)[C@H](NC(=O)c1ccc2c(F)cccc2c1OCc1ccc(C(F)(F)F)cc1)C(=O)O [Example 230, (2S)-2-[[5-fluoro-1-[[4-(trifluoromethyl)phenyl]methoxy]naphthalene-2-carbonyl]amino]-3,3-dimethyl-pentanoic Acid] |
| – | 239% | A (“A” refers to AUC @10 uM >6) | CCC1([C@H](NC(=O)c2ccc3ccc(Cl)cc3c2OCc2ccc(OC(F)(F)F)cc2)C(=O)O)CCCC1 [Example 253, (2S)-2-[[7-chloro-1-[[4-(trifluoromethoxy)phenyl]methoxy]naphthalene-2-carbonyl]amino]-2-(1-ethylcyclopentyl)acetic Acid] |
| 200 nM | 227% | A (“A” refers to AUC @10 uM >6) | CC1([C@H](NC(=O)c2ccc3ccc(C(F)(F)F)cc3c2OCc2ccc(C(F)(F)F)cc2)C(=O)O)CCC1 [Example 299, (S)-2-(1-methylcyclobutyl)-2-(7-(trifluoromethyl)-1-((4-(trifluoromethyl)benzyl)oxy)-2-naphthamido)acetic Acid] |
| 1700 nM | 63.7% | A (“A” refers to AUC @10 uM >6) | CC(C)(C)[C@@H](NC(=O)c1ccc2ccc(F)cc2c1OCc1ccc(OC(F)(F)F)cc1)C(=O)O [Example 259, (2R)-2-[[7-fluoro-1-[[4-(trifluoromethoxy)phenyl]methoxy]naphthalene-2-carbonyl]amino]-3,3-dimethyl-butanoic Acid] |
| 600 nM | 299% | A (“A” refers to AUC @10 uM >6) | COc1ccc2ccc(C(=O)N[C@H](C(=O)O)C(C)(C)C)c(OCc3ccc(OC(F)(F)F)cc3)c2c1 [Example 310, (S)-2-(7-methoxy-1-((4-(trifluoromethoxy)benzyl)oxy)-2-naphthamido)-3,3-dimethylbutanoic Acid] |
| 1500 nM | 206% | A (“A” refers to AUC @10 uM >6) | CC(C)(C)[C@H](NC(=O)c1ccc2ccc(C#N)cc2c1OCc1ccc(C(F)(F)F)cc1)C(=O)O [Example 248, (2S)-2-[[7-cyano-1-[[4-(trifluoromethyl)phenyl]methoxy]naphthalene-2-carbonyl]amino]-3,3-dimethyl-butanoic Acid] |
| 2000 nM | 215% | A (“A” refers to AUC @10 uM >6) | C#CC(C)(C)C(NC(=O)c1ccc2ccccc2c1OCc1ccc(C(F)(F)F)cc1)C(=O)O (centres unmarked) [Example 228, 3,3-dimethyl-2-[[1-[[4-(trifluoromethyl)phenyl]methoxy]naphthalene-2-carbonyl]amino]pent-4-ynoic Acid] |
| 500 nM | 173% | C (“C” refers to AUC @10 uM <4) | Cc1ccc2ccc(C(=O)N[C@@H](C(=O)O)C(C)(C)C)c(OCc3ccc(C(F)(F)F)cc3)c2c1 [Example 284, (R)-3,3-dimethyl-2-(7-methyl-1-((4-(trifluoromethyl)benzyl)oxy)-2-naphthamido) butanoic Acid] |
